# Activity calls are given as the source filed them. The calls are words filed in the database; no cut-off is given here.
# Assays:
# [1] = (§1) Drug uptake in Sprague-Dawley rat lung at 1 mg/ml administered in trachea after 180 mins by LC-MS/MS analysis; type: ADME; conditions: Sprague-Dawley, lung, inhaled or intranasal, 1 mg/ml, read-out: Drug uptake
# [2] = system: Lung; assay: as §1; type: ADME; conditions: in vivo, inhaled_or_intranasal, 3 h, BLD = below limit of detection
# [3] = system: Rattus norvegicus; assay: Pulmonary vasodilatory effect in MCT-induced Sprague-Dawley rat pulmonary arterial hypertension model assessed as weight ratio of right ventricle to left ventricle and septum at 2.1 ug/kg, inhaled daily for 28 days (reference value: 0.4796 +/- 0.030); type: functional
# [4] = system: Rattus norvegicus; assay: Pulmonary vasodilatory effect in MCT-induced Sprague-Dawley rat pulmonary arterial hypertension model assessed as weight ratio of right ventricle to left ventricle and septum at 2.1 ug/kg, inhaled daily for 28 days co-administered with ISMN (reference value: 0.4796 +/- 0.030); type: functional
# [5] = Drug uptake in Sprague-Dawley rat lung at 1 mg/ml administered in trachea after 360 mins by LC-MS/MS analysis; type: ADME, tissue-based; conditions: inhaled or intranasal, read-out: Drug uptake
# [6] = system: Lung; assay: Drug level in Sprague-Dawley rat lung treated with CDDO-NO at 1 mg/ml administered in trachea after 90 to 720 mins by LC-MS/MS analysis; type: ADME, tissue-based; conditions: in vivo, inhaled_or_intranasal
# [7] = system: Rattus norvegicus; assay: Pulmonary vasodilatory effect in MCT-induced Sprague-Dawley rat pulmonary arterial hypertension model assessed as mean pulmonary artery pressure at 2.1 ug/kg, inhaled daily for 28 days co-administered with ISMN by polygraph method (reference value: 30.63 +/- 1.16 mmHg); type: functional
# [8] = system: Plasma; assay: Drug level in Sprague-Dawley rat plasma treated with CDDO-NO at 1 mg/ml administered in trachea after 15 to 720 mins by LC-MS/MS analysis; type: ADME, cell-free; conditions: inhaled_or_intranasal
# [9] = system: Rattus norvegicus; assay: Pulmonary vasodilatory effect in MCT-induced Sprague-Dawley rat pulmonary arterial hypertension model assessed as right ventricular systolic pressure at 2.1 ug/kg, inhaled daily for 28 days co-administered with ISMN by polygraph method (reference value: 56.09 +/- 3.24 mmHg); type: functional
# [10] = system: Rattus norvegicus; assay: Pulmonary vasodilatory effect in MCT-induced Sprague-Dawley rat pulmonary arterial hypertension model assessed as right ventricular systolic pressure at 2.1 ug/kg, inhaled daily for 28 days by polygraph method (reference value: 56.09 +/- 3.24 mmHg); type: functional
# [11] = system: Rattus norvegicus; assay: Pulmonary vasodilatory effect in MCT-induced Sprague-Dawley rat pulmonary arterial hypertension model assessed as mean pulmonary artery pressure at 2.1 ug/kg, inhaled daily for 28 days by polygraph method (reference value: 30.63 +/- 1.16 mmHg); type: functional
# [12] = Drug uptake in Sprague-Dawley rat lung at 1 mg/ml administered in trachea after 60 mins by LC-MS/MS analysis; type: ADME, tissue-based; conditions: inhaled or intranasal, read-out: Drug uptake
# [13] = system: Rattus norvegicus; assay: Inhibition of vascular remodeling in MCT-induced Sprague-Dawley rat pulmonary arterial hypertension model assessed as decrease in MCT-induced perivascular fibrosis at 3 ug/kg, inhaled daily for 28 days by masson's trichrome staining-based assay; type: functional
# [14] = system: Rattus norvegicus; assay: Inhibition of vascular remodeling in MCT-induced Sprague-Dawley rat pulmonary arterial hypertension model assessed as reduction of MCT-induced pulmonary vascular muscularization by measuring downregulation of alpha-SMA levels at 3 ug/kg, inhaled daily for 28 days by immunohistochemical method; type: functional
# [15] = system: Rattus norvegicus; assay: Inhibition of vascular remodeling in MCT-induced Sprague-Dawley rat pulmonary arterial hypertension model assessed as reduction of MCT-induced medial thickness of pulmonary artery at 3 ug/kg, inhaled daily for 28 days by hematoxylin and eosin staining-based assay; type: functional
# [16] = system: Lung; assay: Drug metabolism in Sprague-Dawley rat lung assessed as formation of CDDO-Me at 1 mg/ml administered in trachea after 90 mins by LC-MS/MS analysis; type: ADME, tissue-based; conditions: in vivo, inhaled_or_intranasal, 1.5 h
# [17] = system: Rattus norvegicus; assay: Inhibition of vascular remodeling in MCT-induced Sprague-Dawley rat pulmonary arterial hypertension model assessed as decrease in MCT-induced macrophage infiltration in perivascular tissue at 3 ug/kg, inhaled daily for 28 days by immunohistochemical method; type: functional
# [18] = system: Rattus norvegicus; assay: Pulmonary vasodilatory effect in MCT-induced Sprague-Dawley rat pulmonary arterial hypertension model assessed as reversal of MCT-induced ET-1 elevation in plasma at 3 ug/kg, inhaled daily for 28 days by ELISA; type: functional
# [19] = system: Lung; assay: Drug metabolism in Sprague-Dawley rat lung assessed as formation of CDDO-Me at 1 mg/ml administered in trachea after 12 hrs by LC-MS/MS analysis; type: ADME, tissue-based; conditions: in vivo, inhaled_or_intranasal
# [20] = system: Rattus norvegicus; assay: Inhibition of oxidative response in lung of MCT-induced Sprague-Dawley rat pulmonary arterial hypertension model assessed as decrease in ratio of NOX4 positive cells and NOX4 expression at 3 ug/kg, inhaled daily for 28 days by immunohistochemical method; type: functional
# [21] = system: Rattus norvegicus; assay: Pulmonary vasodilatory effect in MCT-induced Sprague-Dawley rat pulmonary arterial hypertension model assessed as reversal of MCT-induced nitric oxide reduction in plasma at 3 ug/kg, inhaled daily for 28 days by Griess assay; type: functional
# [22] = system: Rattus norvegicus; assay: Inhibition of vascular remodeling in MCT-induced Sprague-Dawley rat pulmonary arterial hypertension model assessed as decrease in MCT-induced collagen-1 expression in lung at 3 ug/kg, inhaled daily for 28 days by Western blot method; type: functional
# [23] = system: Rattus norvegicus; assay: Inhibition of vascular remodeling in MCT-induced Sprague-Dawley rat pulmonary arterial hypertension model assessed as decrease in MCT-induced TGF-beta expression in lung at 3 ug/kg, inhaled daily for 28 days by Western blot method; type: functional
# [24] = system: Rattus norvegicus; assay: Inhibition of cardiac fibrosis in MCT-induced Sprague-Dawley rat pulmonary arterial hypertension model at 3 ug/kg, inhaled daily for 28 days by picro-sirius red staining-based assay; type: functional
# [25] = system: Rattus norvegicus; assay: Inhibition of vascular remodeling in MCT-induced Sprague-Dawley rat pulmonary arterial hypertension model assessed as decrease in MCT-induced increment of PCNA positive cells in lung at 3 ug/kg, inhaled daily for 28 days by immunohistochemical method; type: functional
# [26] = system: Rattus norvegicus; assay: Pulmonary vasodilatory effect in MCT-induced Sprague-Dawley rat pulmonary arterial hypertension model assessed as right ventricular systolic pressure at 3 ug/kg, inhaled daily for 28 days by polygraph method (reference value: 56.09 +/- 3.24 mmHg); type: functional
# [27] = molecular target: T1, Nuclear factor erythroid 2-related factor 2 (Rattus norvegicus) (UniProt O54968); assay: Induction of Nrf2 translocation to nucleus of rat pulmonary artery endothelial cells at 1 uM after 24 hrs by immunofluorescence assay
# T1 sequence (whole entry): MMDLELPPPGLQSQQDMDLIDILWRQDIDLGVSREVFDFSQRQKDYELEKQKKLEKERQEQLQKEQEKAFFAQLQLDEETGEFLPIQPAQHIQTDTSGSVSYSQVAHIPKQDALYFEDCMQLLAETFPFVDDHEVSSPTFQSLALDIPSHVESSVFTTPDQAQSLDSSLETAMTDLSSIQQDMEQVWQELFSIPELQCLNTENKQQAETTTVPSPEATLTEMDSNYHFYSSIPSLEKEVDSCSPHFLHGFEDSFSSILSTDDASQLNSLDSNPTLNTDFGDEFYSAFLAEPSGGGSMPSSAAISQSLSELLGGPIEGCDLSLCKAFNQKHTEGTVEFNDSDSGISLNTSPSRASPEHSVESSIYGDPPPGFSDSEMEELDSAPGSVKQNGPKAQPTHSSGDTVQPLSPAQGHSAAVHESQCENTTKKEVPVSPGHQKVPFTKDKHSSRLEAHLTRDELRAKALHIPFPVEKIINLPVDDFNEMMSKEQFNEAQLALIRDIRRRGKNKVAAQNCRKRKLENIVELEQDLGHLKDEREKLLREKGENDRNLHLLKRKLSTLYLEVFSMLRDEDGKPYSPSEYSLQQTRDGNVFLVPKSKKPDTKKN
# [28] = system: Plasma; assay: Drug metabolism in Sprague-Dawley rat plasma assessed as formation of CDDO-Me at 1 mg/ml administered in trachea after 15 to 720 mins by LC-MS/MS analysis; type: ADME, cell-free; conditions: inhaled_or_intranasal
# [29] = system: Rattus norvegicus; assay: Inhibition of cardiomyocyte hypertrophy in MCT-induced Sprague-Dawley rat pulmonary arterial hypertension model at 3 ug/kg, inhaled daily for 28 days by hematoxylin and eosin staining-based assay; type: functional
# [30] = system: Rattus norvegicus; assay: Pulmonary vasodilatory effect in MCT-induced Sprague-Dawley rat pulmonary arterial hypertension model assessed as mean pulmonary artery pressure at 3 ug/kg, inhaled daily for 28 days by polygraph method (reference value: 30.63 +/- 1.16 mmHg); type: functional
# [31] = system: Rattus norvegicus; assay: Inhibition of vascular remodeling in MCT-induced Sprague-Dawley rat pulmonary arterial hypertension model assessed as downregulation of MCT-induced up-expression of alpha-SMA at 3 ug/kg, inhaled daily for 28 days by Western blot method; type: functional
# [32] = system: Rattus norvegicus; assay: Pulmonary vasodilatory effect in MCT-induced Sprague-Dawley rat pulmonary arterial hypertension model assessed as weight ratio of right ventricle to left ventricle and septum at 3 ug/kg, inhaled daily for 28 days (reference value: 0.4796 +/- 0.030); type: functional
# [33] = system: Rattus norvegicus; assay: Inhibition of oxidative response in lung of MCT-induced Sprague-Dawley rat pulmonary arterial hypertension model assessed as decrease in ratio of NOX4 positive cells and NOX4 expression at 3 ug/kg, inhaled daily for 28 days by Western blot method; type: functional
# [34] = system: Rattus norvegicus; assay: Pulmonary vasodilatory effect in MCT-induced Sprague-Dawley rat pulmonary arterial hypertension model assessed as right ventricular systolic pressure at 0.78 ug/kg, inhaled daily for 28 days by polygraph method (reference value: 56.09 +/- 3.24 mmHg); type: functional
# [35] = system: Rattus norvegicus; assay: Pulmonary vasodilatory effect in MCT-induced Sprague-Dawley rat pulmonary arterial hypertension model assessed as weight ratio of right ventricle to left ventricle and septum at 0.78 ug/kg, inhaled daily for 28 days (reference value: 0.4796 +/- 0.030); type: functional
# [36] = system: Rattus norvegicus; assay: Pulmonary vasodilatory effect in MCT-induced Sprague-Dawley rat pulmonary arterial hypertension model assessed as mean pulmonary artery pressure at 0.78 ug/kg, inhaled daily for 28 days co-administered with CDDO-Me by polygraph method (reference value: 30.63 +/- 1.16 mmHg); type: functional
# [37] = system: Rattus norvegicus; assay: Pulmonary vasodilatory effect in MCT-induced Sprague-Dawley rat pulmonary arterial hypertension model assessed as weight ratio of right ventricle to left ventricle and septum at 0.78 ug/kg, inhaled daily for 28 days co-administered with CDDO-Me (reference value: 0.4796 +/- 0.030); type: functional
# [38] = system: Rattus norvegicus; assay: Pulmonary vasodilatory effect in MCT-induced Sprague-Dawley rat pulmonary arterial hypertension model assessed as mean pulmonary artery pressure at 0.78 ug/kg, inhaled daily for 28 days by polygraph method (reference value: 30.63 +/- 1.16 mmHg); type: functional
# [39] = system: Rattus norvegicus; assay: Pulmonary vasodilatory effect in MCT-induced Sprague-Dawley rat pulmonary arterial hypertension model assessed as right ventricular systolic pressure at 0.78 ug/kg, inhaled daily for 28 days co-administered with CDDO-Me by polygraph method (reference value: 56.09 +/- 3.24 mmHg); type: functional
smiles,measurement,setting,value
COC(=O)[C@]12CCC(C)(C)C[C@H]1[C@H]1C(=O)C=C3[C@@]4(C)C=C(C#N)C(=O)C(C)(C)[C@@H]4CC[C@@]3(C)[C@]1(C)CC2 [BARDOXOLONE METHYL],concentration at 3 h,[1],44.8 ng/mL
same,Drug uptake,[2],Bld
same,Ratio,[3],0.5123
same,Ratio,[4],0.4898
same,concentration at 6 h,[5],3.4 ng/mL
same,Drug metabolism,[6],Metabolite_Detected
same,Activity,[7],27.3 mmHg
same,Drug metabolism,[8],Metabolite_Detected
same,Activity,[9],60.12 mmHg
same,Activity,[10],61.24 mmHg
same,Activity,[11],26.29 mmHg
same,concentration at 1 h,[12],180 to 444 ng/mL
COC(=O)[C@]12CCC(C)(C)C[C@H]1[C@H]1C(=O)C=C3[C@@]4(C)C(O[C@@H]5CO[C@H]6[C@@H]5OC[C@H]6O[N+](=O)[O-])C(C#N)=C(OC(C)=O)C(C)(C)[C@@H]4CC[C@@]3(C)[C@]1(C)CC2 (stereo not given in full),inhibition,[13],Active
same,inhibition,[14],Active
same,inhibition,[15],Active
same,Drug metabolism,[16],78.5 ng/mL
same,inhibition,[17],Active
same,Activity,[18],Active
same,Drug metabolism,[19],15.9 ng/mL
same,inhibition,[20],Active
same,Activity,[21],Active
same,inhibition,[22],Active
same,inhibition,[23],Active
same,inhibition,[24],Active
same,inhibition,[25],Active
same,Activity,[26],44.75 mmHg
same,Activity,[27],Active
same,Drug metabolism,[28],Metabolite_Detected
same,inhibition,[29],Active
same,Activity,[30],20.72 mmHg
same,concentration at 1 h,[12],243 ng/mL
same,inhibition,[31],Active
same,Ratio,[32],0.3656
same,inhibition,[33],Active
O=[N+]([O-])O[C@@H]1CO[C@H]2[C@@H]1OC[C@H]2O,Activity,[34],60.76 mmHg
same,Ratio,[35],0.4844
same,Activity,[36],27.3 mmHg
same,Ratio,[37],0.4898
same,Activity,[38],25.11 mmHg
same,Activity,[39],60.12 mmHg

# From ChEMBL document CHEMBL4052829, “Identification of a Novel Hybridization from Isosorbide 5-Mononitrate and Bardoxolone Methyl with Dual Activities of Pulmonary Vasodilation and Vascular Remodeling Inhibition on Pulmonary Arterial Hypertension Rats” (J Med Chem, 2018)
